In the kinase profiling compilation of Christmann-Franck et al. (2016):

Tests used:
Experiment in all cases: radiometric filter-binding kinase assay, Kinase HotSpot
Details in all cases: compound 0.5 µM; ATP 10 µM
PRKCI (human) = PRKCI (human) (UniProt P41743)
MAP4K2 (human) = MAP4K2 (human) (UniProt Q12851)
PRKCB2 (human) = PRKCB2 (human) (UniProt P05771)
STK17A (human) = STK17A (human) (UniProt Q9UEE5)
EPHB1 (human) = EPHB1 (human) (UniProt P54762)
PRKG2 (human) = PRKG2 (human) (UniProt Q13237)
PKN2 (human) = PKN2 (human) (UniProt Q16513)
Sequence of PKN2 (human) (Q16513 whole entry, looked up): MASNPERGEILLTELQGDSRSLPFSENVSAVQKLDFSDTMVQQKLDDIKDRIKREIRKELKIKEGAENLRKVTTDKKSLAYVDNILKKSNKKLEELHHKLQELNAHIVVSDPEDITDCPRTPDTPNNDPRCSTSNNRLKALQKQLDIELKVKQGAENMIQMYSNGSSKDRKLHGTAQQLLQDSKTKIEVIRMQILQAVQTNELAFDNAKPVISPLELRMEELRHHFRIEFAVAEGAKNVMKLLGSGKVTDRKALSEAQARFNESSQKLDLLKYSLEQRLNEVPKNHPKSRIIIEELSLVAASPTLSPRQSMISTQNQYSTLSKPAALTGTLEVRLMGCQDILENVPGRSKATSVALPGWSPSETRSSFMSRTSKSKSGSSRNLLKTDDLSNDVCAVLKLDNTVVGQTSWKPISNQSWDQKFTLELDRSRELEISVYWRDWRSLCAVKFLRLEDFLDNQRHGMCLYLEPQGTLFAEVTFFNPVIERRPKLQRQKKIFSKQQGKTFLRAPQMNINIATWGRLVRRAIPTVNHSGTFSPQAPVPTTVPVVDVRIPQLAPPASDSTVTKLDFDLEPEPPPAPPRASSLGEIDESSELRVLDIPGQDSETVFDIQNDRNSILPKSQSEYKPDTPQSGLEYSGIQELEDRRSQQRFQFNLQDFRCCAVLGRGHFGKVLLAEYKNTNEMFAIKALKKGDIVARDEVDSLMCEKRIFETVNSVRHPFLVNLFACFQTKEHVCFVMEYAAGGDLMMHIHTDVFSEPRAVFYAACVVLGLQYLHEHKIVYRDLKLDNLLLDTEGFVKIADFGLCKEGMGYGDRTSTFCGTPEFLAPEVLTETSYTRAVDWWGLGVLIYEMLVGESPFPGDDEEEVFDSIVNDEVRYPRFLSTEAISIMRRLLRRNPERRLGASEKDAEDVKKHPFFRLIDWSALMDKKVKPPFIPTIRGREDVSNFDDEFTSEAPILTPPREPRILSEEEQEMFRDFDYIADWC

ROCK1 (human) = ROCK1 (human) (UniProt Q13464)
IGF1R (human) = IGF1R (human) (UniProt P08069)
EPHA7 (human) = EPHA7 (human) (UniProt Q15375)
FGR (human) = FGR (human) (UniProt P09769)
CSNK1A1 (human) = CSNK1A1 (human) (UniProt P48729)
CSNK2A1 (human) = CSNK2A1 (human) (UniProt P68400)
IKBKE (human) = IKBKE (human) (UniProt Q14164)
STK33 (human) = STK33 (human) (UniProt Q9BYT3)
NEK2 (human) = NEK2 (human) (UniProt P51955)
MUSK (human) = MUSK (human) (UniProt O15146)
TYRO3 (human) = TYRO3 (human) (UniProt Q06418)
PBK (human) = PBK (human) (UniProt Q96KB5)
PRKCA (human) = PRKCA (human) (UniProt P17252)
MAPKAPK2 (human) = MAPKAPK2 (human) (UniProt P49137)
CDK3 CCNE1 (human) = CDK3 CCNE1 (human) (UniProt Q00526+P24864)
Sequence of CDK3 CCNE1 (human) (P24864 whole entry, looked up): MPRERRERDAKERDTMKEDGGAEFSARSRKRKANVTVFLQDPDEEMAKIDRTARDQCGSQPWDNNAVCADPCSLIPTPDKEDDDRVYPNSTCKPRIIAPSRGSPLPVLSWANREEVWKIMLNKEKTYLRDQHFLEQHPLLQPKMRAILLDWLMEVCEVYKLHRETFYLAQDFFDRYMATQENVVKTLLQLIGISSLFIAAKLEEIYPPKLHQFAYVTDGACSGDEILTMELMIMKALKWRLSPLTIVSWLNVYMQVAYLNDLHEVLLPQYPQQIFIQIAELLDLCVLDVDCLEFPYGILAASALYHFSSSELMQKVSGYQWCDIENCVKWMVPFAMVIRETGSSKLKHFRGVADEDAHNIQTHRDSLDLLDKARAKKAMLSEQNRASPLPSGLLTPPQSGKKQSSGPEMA
Sequence of CDK3 CCNE1 (human) (Q00526 whole entry, looked up): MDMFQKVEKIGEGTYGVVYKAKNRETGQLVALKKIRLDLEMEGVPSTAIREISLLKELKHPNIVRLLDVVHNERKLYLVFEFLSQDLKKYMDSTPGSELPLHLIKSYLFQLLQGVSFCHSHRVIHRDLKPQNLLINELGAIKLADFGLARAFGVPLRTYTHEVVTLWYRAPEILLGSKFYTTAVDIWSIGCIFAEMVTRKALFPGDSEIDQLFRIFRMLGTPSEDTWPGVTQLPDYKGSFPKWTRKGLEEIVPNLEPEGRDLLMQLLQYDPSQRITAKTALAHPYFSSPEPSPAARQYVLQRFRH

MST1R (human) = MST1R (human) (UniProt Q04912)
CLK3 (human) = CLK3 (human) (UniProt P49761)
CSNK1E (human) = CSNK1E (human) (UniProt P49674)
MYLK2 (human) = MYLK2 (human) (UniProt Q9H1R3)
RIPK2 (human) = RIPK2 (human) (UniProt O43353)
MLTK (human) = MLTK (human) (UniProt Q9NYL2)
Sequence of MLTK (human) (Q9NYL2 whole entry, looked up): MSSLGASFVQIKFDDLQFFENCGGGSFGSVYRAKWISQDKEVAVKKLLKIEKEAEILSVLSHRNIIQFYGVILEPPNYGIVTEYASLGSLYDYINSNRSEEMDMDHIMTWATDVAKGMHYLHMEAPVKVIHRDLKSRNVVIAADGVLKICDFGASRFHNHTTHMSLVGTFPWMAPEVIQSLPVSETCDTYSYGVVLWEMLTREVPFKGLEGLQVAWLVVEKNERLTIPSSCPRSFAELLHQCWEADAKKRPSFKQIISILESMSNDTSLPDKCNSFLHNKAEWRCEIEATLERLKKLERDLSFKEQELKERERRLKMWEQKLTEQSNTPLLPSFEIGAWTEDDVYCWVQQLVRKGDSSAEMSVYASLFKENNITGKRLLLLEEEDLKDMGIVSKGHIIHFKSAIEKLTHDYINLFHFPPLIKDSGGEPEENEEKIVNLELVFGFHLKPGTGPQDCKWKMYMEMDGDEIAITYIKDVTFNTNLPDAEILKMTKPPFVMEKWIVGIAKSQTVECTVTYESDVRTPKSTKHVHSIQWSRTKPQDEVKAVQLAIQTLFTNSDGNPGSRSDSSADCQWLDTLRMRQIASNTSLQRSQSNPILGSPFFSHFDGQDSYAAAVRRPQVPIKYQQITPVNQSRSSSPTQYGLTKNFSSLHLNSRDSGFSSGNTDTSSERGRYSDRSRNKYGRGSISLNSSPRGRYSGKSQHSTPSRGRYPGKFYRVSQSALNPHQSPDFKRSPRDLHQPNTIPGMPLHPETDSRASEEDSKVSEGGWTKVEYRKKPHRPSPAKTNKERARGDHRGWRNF

PAK4 (human) = PAK4 (human) (UniProt O96013)
FYN (human) = FYN (human) (UniProt P06241)
Sequence of FYN (human) (P06241 whole entry, looked up): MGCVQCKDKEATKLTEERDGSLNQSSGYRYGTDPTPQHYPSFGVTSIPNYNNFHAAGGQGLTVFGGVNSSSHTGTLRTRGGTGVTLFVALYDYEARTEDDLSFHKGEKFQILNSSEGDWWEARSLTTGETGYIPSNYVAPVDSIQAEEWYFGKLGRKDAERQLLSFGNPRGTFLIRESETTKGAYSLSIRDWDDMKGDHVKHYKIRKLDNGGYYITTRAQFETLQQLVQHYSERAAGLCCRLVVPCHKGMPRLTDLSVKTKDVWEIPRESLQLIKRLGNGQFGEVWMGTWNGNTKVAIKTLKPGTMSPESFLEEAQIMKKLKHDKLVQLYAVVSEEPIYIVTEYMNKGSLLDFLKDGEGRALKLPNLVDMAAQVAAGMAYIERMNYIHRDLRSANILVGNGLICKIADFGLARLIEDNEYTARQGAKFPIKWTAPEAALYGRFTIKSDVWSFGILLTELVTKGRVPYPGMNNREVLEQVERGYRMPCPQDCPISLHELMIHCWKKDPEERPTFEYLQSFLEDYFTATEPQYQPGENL

ADRBK1 (human) = ADRBK1 (human) (UniProt P25098)
MAP3K5 (human) = MAP3K5 (human) (UniProt Q99683)
PLK3 (human) = PLK3 (human) (UniProt Q9H4B4)
JAK3 JH1 JH2 (human) = JAK3 JH1 JH2 (human) (UniProt P52333)
ERBB2 (human) = ERBB2 (human) (UniProt P04626)
TBK1 (human) = TBK1 (human) (UniProt Q9UHD2)
Sequence of TBK1 (human) (Q9UHD2 whole entry, looked up): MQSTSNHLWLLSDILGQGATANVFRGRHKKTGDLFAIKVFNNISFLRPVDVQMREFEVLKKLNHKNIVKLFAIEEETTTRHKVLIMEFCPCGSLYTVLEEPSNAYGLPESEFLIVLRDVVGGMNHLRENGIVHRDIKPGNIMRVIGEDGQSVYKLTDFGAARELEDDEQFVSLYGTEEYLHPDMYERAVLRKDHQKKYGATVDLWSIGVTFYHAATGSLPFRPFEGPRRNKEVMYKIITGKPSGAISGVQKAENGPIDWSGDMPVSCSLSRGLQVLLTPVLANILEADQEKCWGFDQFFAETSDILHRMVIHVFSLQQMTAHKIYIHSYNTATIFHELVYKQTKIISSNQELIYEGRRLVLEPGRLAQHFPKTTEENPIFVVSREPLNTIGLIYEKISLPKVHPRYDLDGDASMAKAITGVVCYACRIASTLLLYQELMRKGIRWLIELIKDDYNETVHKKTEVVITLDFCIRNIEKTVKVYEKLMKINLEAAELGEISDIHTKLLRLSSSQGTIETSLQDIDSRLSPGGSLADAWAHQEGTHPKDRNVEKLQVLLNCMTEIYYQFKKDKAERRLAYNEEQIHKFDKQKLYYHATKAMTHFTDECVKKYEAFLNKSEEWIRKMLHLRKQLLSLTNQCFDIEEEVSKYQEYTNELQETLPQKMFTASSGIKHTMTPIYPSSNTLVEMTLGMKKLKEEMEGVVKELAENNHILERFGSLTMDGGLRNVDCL

EPHA3 (human) = EPHA3 (human) (UniProt P29320)
Sequence of EPHA3 (human) (P29320 whole entry, looked up): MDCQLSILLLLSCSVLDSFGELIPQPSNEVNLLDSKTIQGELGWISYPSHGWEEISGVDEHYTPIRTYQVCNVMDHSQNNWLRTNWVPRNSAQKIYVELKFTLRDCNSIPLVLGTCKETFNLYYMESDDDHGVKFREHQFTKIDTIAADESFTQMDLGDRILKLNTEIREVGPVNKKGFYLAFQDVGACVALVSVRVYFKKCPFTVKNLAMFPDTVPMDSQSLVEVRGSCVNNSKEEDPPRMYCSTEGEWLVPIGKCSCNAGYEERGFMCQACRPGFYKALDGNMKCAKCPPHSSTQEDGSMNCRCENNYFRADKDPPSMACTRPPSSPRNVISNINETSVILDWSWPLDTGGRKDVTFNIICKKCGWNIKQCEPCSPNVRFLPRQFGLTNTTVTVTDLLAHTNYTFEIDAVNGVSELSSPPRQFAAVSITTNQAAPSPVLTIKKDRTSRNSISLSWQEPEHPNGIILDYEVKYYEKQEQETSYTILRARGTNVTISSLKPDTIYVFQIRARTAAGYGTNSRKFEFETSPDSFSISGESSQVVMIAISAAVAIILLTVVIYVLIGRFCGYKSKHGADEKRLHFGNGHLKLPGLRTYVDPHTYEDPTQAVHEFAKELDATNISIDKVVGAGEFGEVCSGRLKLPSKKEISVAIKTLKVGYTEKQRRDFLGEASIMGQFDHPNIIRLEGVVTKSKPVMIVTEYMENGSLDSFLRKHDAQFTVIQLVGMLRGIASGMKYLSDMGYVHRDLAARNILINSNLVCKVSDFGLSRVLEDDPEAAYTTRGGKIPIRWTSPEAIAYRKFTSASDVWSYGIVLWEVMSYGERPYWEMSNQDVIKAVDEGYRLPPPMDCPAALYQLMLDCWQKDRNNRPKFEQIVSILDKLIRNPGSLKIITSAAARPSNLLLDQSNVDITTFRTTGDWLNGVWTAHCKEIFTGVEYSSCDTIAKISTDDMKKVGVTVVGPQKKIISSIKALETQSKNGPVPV

RPS6KB1 (human) = RPS6KB1 (human) (UniProt P23443)
IKBKB (human) = IKBKB (human) (UniProt O14920)
DYRK1B (human) = DYRK1B (human) (UniProt Q9Y463)
CAMKK1 (human) = CAMKK1 (human) (UniProt Q8N5S9)
MAP3K11 (human) = MAP3K11 (human) (UniProt Q16584)

Oc1ccc(-c2nc(-c3ccc(F)cc3)c(-c3ccncc3)[nH]2)cc1
residual activity (PRKCI (human)): 93.4% | residual activity (MAP4K2 (human)): 101% | residual activity (PRKCB2 (human)): 75% | residual activity (STK17A (human)): 101% | residual activity (EPHB1 (human)): 96.8% | residual activity (PRKG2 (human)): 94.2% | residual activity (PKN2 (human)): 101% | residual activity (ROCK1 (human)): 101% | residual activity (IGF1R (human)): 108% | residual activity (EPHA7 (human)): 86.1% | residual activity (FGR (human)): 93% | residual activity (CSNK1A1 (human)): 62.3% | residual activity (CSNK2A1 (human)): 92.4% | residual activity (IKBKE (human)): 101% | residual activity (STK33 (human)): 103% | residual activity (NEK2 (human)): 101% | residual activity (MUSK (human)): 86.8% | residual activity (TYRO3 (human)): 97.5% | residual activity (PBK (human)): 100% | residual activity (PRKCA (human)): 102% | residual activity (MAPKAPK2 (human)): 99.2% | residual activity (CDK3 CCNE1 (human)): 96.7% | residual activity (MST1R (human)): 102% | residual activity (CLK3 (human)): 101% | residual activity (CSNK1E (human)): 32.7% | residual activity (MYLK2 (human)): 93.5% | residual activity (RIPK2 (human)): 46.8% | residual activity (MLTK (human)): 98.8% | residual activity (PAK4 (human)): 98.6% | residual activity (FYN (human)): 87.5% | residual activity (ADRBK1 (human)): 101% | residual activity (MAP3K5 (human)): 105% | residual activity (PLK3 (human)): 96.2% | residual activity (JAK3 JH1 JH2 (human)): 95.8% | residual activity (ERBB2 (human)): 95.5% | residual activity (TBK1 (human)): 95.2% | residual activity (EPHA3 (human)): 99% | residual activity (RPS6KB1 (human)): 87.8% | residual activity (IKBKB (human)): 110% | residual activity (DYRK1B (human)): 105% | residual activity (CAMKK1 (human)): 123% | residual activity (MAP3K11 (human)): 25.2%

Cc1ccc(NC(=O)c2ccc(CN3CCN(C)CC3)cc2)cc1Nc1nc(-c2cccnc2)cs1
residual activity (PRKCI (human)): 93.7% | residual activity (MAP4K2 (human)): 103% | residual activity (PRKCB2 (human)): 95.9% | residual activity (STK17A (human)): 104% | residual activity (EPHB1 (human)): 94.9% | residual activity (PRKG2 (human)): 95.4% | residual activity (PKN2 (human)): 108% | residual activity (ROCK1 (human)): 102% | residual activity (IGF1R (human)): 101% | residual activity (EPHA7 (human)): 99.7% | residual activity (FGR (human)): 43.6% | residual activity (CSNK1A1 (human)): 98.5% | residual activity (CSNK2A1 (human)): 99.2% | residual activity (IKBKE (human)): 97.2% | residual activity (STK33 (human)): 91.1% | residual activity (NEK2 (human)): 96.7% | residual activity (MUSK (human)): 99% | residual activity (TYRO3 (human)): 98.9% | residual activity (PBK (human)): 99.6% | residual activity (PRKCA (human)): 110% | residual activity (MAPKAPK2 (human)): 102% | residual activity (CDK3 CCNE1 (human)): 90.2% | residual activity (MST1R (human)): 104% | residual activity (CLK3 (human)): 93.6% | residual activity (CSNK1E (human)): 98.8% | residual activity (MYLK2 (human)): 98.7% | residual activity (RIPK2 (human)): 108% | residual activity (MLTK (human)): 86.8% | residual activity (PAK4 (human)): 103% | residual activity (FYN (human)): 37.3% | residual activity (ADRBK1 (human)): 121% | residual activity (MAP3K5 (human)): 95% | residual activity (PLK3 (human)): 101% | residual activity (JAK3 JH1 JH2 (human)): 93.7% | residual activity (ERBB2 (human)): 103% | residual activity (TBK1 (human)): 97% | residual activity (EPHA3 (human)): 90.3% | residual activity (RPS6KB1 (human)): 104% | residual activity (IKBKB (human)): 97.8% | residual activity (DYRK1B (human)): 95.7% | residual activity (CAMKK1 (human)): 97.6% | residual activity (MAP3K11 (human)): 101%
